Source: article PMC9851200, “Multiparameter phenotypic screening for endogenous TFEB and TFE3 translocation identifies novel chemical series modulating lysosome function” (Autophagy, 2022)

Assays:
Assay type in all cases: binding
[1] = molecular target: kinases (KINOMEscan panel) (Homo sapiens, UniProt Q86Y07); conditions: NEW KINOMEscan
[2] = molecular target: T1, kinases (KINOMEscan panel) (Homo sapiens, UniProt Q8WXR4); conditions: MYO3B; NEW KINOMEscan
T1 sequence (Q8WXR4 1-1341): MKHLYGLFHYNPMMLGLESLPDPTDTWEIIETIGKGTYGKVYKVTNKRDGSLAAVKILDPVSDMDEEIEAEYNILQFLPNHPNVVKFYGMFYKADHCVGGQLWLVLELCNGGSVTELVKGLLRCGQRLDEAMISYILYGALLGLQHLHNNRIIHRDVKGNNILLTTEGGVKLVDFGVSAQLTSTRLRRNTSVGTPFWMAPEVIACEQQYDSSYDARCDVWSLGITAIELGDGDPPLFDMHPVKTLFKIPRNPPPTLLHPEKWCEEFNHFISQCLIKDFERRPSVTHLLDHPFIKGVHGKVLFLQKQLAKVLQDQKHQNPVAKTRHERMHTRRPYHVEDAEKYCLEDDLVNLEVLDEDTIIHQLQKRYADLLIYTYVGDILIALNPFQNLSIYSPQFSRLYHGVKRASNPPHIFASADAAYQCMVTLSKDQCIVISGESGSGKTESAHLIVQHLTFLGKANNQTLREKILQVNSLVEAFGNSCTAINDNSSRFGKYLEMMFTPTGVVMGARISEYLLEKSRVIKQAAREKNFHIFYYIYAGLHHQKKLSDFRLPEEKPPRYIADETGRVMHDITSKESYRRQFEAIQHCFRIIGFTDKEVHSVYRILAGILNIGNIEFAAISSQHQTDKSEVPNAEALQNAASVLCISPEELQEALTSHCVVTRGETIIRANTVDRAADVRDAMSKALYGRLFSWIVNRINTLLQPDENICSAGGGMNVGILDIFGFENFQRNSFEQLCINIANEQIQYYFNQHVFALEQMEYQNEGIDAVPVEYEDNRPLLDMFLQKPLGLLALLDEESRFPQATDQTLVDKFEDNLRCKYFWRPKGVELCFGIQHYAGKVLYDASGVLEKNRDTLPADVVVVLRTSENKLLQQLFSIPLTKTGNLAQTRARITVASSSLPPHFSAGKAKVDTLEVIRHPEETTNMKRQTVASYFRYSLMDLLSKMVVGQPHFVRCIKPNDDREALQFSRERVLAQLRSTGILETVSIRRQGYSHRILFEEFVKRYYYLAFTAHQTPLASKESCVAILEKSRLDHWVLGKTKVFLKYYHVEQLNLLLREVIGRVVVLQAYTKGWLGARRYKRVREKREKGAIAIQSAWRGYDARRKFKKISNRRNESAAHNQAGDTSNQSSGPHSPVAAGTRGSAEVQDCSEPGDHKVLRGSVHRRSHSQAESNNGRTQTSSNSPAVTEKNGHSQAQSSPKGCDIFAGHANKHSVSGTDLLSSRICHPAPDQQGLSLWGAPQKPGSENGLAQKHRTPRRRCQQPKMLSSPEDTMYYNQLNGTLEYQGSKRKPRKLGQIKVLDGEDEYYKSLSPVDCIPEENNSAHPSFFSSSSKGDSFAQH

[3] = molecular target: kinases (KINOMEscan panel) (Homo sapiens, UniProt P10721, L576P); conditions: KIT(L576P); NEW KINOMEscan
[4] = molecular target: T2, kinases (KINOMEscan panel) (Homo sapiens, UniProt Q16832); conditions: DDR2; NEW KINOMEscan
T2 sequence (Q16832 22-855): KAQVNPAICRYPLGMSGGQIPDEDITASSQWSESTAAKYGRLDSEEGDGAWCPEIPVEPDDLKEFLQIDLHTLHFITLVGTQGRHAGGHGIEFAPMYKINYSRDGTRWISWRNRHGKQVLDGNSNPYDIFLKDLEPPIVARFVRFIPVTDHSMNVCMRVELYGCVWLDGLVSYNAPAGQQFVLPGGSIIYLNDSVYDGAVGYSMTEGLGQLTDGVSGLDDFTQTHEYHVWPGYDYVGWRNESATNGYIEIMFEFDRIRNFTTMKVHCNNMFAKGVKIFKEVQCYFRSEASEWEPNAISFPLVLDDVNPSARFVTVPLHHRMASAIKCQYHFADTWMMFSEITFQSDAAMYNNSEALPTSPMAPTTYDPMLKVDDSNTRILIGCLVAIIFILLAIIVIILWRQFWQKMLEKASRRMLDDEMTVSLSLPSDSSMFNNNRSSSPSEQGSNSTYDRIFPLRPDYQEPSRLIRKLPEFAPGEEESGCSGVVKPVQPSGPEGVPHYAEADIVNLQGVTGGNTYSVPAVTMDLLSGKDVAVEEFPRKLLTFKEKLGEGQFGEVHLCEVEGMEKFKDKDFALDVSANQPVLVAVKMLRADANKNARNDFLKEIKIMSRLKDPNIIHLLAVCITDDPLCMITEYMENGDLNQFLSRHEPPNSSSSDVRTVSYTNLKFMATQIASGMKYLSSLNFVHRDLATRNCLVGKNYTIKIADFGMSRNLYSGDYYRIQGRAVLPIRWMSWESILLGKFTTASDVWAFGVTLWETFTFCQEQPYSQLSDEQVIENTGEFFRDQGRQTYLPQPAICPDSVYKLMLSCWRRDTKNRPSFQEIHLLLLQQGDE

[5] = molecular target: kinases (KINOMEscan panel) (Homo sapiens, UniProt P08581, M1250T); conditions: kinase MET(M1250T); NEW KINOMEscan
kinases (KINOMEscan panel) (Homo sapiens, UniProt P08581, M1250T), sequence (P08581 25-1390 M1250T): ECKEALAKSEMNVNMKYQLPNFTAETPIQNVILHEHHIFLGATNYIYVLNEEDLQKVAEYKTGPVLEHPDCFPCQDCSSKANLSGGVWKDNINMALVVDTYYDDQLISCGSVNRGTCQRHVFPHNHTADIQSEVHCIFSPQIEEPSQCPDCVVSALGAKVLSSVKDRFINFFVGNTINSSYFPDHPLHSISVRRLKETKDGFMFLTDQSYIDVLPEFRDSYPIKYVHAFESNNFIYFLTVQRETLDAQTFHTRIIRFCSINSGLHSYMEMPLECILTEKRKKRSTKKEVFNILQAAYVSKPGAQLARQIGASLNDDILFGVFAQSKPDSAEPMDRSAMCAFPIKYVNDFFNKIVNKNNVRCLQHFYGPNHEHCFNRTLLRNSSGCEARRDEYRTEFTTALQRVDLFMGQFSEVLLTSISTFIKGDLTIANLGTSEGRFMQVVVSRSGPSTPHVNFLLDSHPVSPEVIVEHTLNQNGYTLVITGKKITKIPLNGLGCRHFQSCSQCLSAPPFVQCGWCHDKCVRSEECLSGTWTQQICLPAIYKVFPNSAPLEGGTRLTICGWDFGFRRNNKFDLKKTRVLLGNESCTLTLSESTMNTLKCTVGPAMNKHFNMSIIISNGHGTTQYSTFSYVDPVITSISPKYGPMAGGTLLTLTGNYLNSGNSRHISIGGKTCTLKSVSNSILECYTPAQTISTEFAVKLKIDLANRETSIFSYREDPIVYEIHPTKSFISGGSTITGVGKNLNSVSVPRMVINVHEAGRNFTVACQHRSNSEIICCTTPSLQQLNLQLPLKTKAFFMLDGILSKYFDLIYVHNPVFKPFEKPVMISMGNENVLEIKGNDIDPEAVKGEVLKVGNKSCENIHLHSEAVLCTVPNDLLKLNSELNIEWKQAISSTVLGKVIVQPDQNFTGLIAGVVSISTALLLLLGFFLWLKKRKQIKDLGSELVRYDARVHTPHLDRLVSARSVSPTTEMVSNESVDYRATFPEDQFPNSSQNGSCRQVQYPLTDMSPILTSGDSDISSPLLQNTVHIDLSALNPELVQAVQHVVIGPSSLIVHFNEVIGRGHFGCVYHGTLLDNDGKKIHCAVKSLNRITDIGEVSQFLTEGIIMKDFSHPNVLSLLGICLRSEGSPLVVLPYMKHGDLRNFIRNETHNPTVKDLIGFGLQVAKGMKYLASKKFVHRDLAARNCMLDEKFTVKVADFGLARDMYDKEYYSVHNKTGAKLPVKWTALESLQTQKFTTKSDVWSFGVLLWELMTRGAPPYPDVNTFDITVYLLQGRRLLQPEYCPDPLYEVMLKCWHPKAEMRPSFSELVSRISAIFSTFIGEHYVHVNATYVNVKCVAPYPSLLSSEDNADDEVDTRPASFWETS

kinases (KINOMEscan panel) (Homo sapiens, UniProt P10721, L576P), sequence (P10721 26-976 L576P): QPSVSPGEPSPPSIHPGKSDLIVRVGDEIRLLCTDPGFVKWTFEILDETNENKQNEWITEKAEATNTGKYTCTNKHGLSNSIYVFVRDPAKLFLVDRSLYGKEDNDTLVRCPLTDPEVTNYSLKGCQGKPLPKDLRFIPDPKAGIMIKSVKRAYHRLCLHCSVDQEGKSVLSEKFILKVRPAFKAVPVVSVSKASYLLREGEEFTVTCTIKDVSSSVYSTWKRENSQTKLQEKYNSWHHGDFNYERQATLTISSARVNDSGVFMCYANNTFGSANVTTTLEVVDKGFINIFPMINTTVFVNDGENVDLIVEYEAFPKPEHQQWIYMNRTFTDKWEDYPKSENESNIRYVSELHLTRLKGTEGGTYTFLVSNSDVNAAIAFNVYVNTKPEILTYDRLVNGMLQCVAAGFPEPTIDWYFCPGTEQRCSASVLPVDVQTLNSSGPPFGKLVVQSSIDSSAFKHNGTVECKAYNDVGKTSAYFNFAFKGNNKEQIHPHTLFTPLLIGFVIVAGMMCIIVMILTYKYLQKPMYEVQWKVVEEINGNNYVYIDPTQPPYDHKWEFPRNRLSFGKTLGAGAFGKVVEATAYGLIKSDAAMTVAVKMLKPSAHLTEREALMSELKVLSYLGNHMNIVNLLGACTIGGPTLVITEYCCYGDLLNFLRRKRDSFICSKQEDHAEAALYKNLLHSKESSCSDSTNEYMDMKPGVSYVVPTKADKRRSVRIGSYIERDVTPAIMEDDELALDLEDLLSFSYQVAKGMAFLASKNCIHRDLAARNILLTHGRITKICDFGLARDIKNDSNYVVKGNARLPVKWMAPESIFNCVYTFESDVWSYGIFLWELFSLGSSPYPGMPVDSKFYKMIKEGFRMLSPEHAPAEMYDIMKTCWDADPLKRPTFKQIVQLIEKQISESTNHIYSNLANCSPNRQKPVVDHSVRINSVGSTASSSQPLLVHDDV
kinases (KINOMEscan panel) (Homo sapiens, UniProt Q86Y07), sequence (Q86Y07 whole entry): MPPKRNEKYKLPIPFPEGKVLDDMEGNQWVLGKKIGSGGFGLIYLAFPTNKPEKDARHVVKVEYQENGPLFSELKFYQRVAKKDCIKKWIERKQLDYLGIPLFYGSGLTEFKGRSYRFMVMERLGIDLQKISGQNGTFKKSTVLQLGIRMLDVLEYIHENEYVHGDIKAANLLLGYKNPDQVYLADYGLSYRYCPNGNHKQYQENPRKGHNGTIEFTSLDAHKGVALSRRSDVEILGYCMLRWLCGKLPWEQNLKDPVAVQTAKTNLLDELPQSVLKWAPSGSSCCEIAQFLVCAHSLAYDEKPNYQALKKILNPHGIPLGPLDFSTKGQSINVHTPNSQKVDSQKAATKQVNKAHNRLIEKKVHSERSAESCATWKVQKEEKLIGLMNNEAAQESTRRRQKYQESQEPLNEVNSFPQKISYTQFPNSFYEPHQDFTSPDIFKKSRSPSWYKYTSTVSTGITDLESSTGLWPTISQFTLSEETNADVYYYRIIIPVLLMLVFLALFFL

Row | SMILES | KINOMEscan VRK2 [1] | KINOMEscan MYO3B [2] | KINOMEscan KIT(L576P) [3] | KINOMEscan DDR2 [4] | KINOMEscan MET(M1250T) [5]
1 | Cc1cccc(-c2nc(Nc3ccc4nn(C)cc4c3)c3ccccc3n2)n1 [NK167] | 11 | 0 | 3 | 2 | 0
2 | Cc1cccc(-c2nc(N(C)c3ccc4ncsc4c3)c3ccccc3n2)n1 [NK-161] | 25 | 1 | 0 | 1 | 3
